Test results from patent publication US20260284046A1, “PYRIDAZINE COMPOUNDS FOR TREATMENT OF FIBROTIC DISEASES” (GEORG-AUGUST-UNIVERSITAET GOETTINGEN STIFTUNG OEFFENTLICHEN …, priority 2023, published 2026).

Legend:
[1] = tested on: human dermal fibroblasts HRO159N; experiment: ELISA of secreted pro-collagen I alpha 1, human dermal fibroblasts HRO159N; assay type: cell-based; conditions: 48 h, 250 μg
Experimental: (§1) Compounds reconstitution and stock solution: Prior to treatment, DMSO was diluted in PMS until 0.1% DMSO was made. Each compound was solved in 0.1% DMSO (3: 2.5 mg/mL, 1: 2.5 mg/mL, 10: 1 mg/mL, 5: 1 mg/mL, 7: 0.6 mg/mL, 16: 1 mg/mL 17: 1 mg/mL, 44: 0.6 mg/mL, 36: 1 mg/mL.
(§2) Next the different stock solution with 150 μg and 250 μg of each compound per 1 ml culture solution was made by adding the 0.1% DMSO compound solution in the right amount to culture solution (DMEM with 10% FCS and 1% penicillin-streptomycin).
Three different cell lines were used for the experiments. GM637 is an immortalized cell line originated from human skin fibroblasts, bought in 2001, UKE1 and […] are cell lines originated from human dermal fibroblasts (dog ear) nurtured from patients, between 60 and 80 years old being completely anonymized at the clinic for dermatology, Rostock.
(§3) The cells lines were thawed and were cultured in Dulbecco's modified Eagle's medium (DMEM, Gibcon, USA) supplemented with 10% fetal bovine serum (FBS, Gibco, Germany) and 1% penicillin-streptomycin (PS, Gibco, USA) at 37° C. in a humidified atmosphere with 5% CO2 until a sufficient number of cells were culture in T75 culture bottles. After reaching a confluence of 80% to 90%, the cells were separated using trypsin and counted. Next 100.000 cells were planted in each well of a 6 well plate in replicates, washed and the DMEM solution with 150 μg and 250 μg/ml substance/DMEM and DMEM with no substance as control was added.
(§4) After 48 h and after 72 h 100 μl supernatant of each well was taken, labelled and frozen at −20° degree Celsius. Prior to perform ELISA the medium was depending on the cell line diluted 1:50 or 1:100 with PBS, otherwise the concentration of collagen fibers was too high to be measured.
The media containing the secretion of the different human dermal fibroblasts GM637, UKE1, and HRO159N were collected after 48 h and 72 h treatment. Secretion of pro-collagen 1 was assessed with human pro-collagen I alpha 1 DuoSet ELISA (R&D systems, USA) To prepare the Elisa plate, Human pro-Collagen I α capture antibody was diluted in ELISA plate-coating buffer at 4 μg/mL working concentration. 100 μl of diluted Capture antibody was added to 96-well microplates and incubated over night at room temperature. After three times washing with Wash Buffer, microplates were blocked by adding 300 μl of Reagent Diluent for 1 hour at room temperature. To proceed the ELISA Human pro-collagen I α1 Standards were diluted in Reagent Diluent (range between […]) and 100 μl of standards or conditioned mediums were added to designated wells. Microplates were incubated at room temperature for 2 hours. Human Pro-collagen I α1 Detection Antibody was prepared in Reagent Diluent at […] working concentration and 100 μl of diluted Detection Antibody was applied for 2 hours at room temperature after extensive washing. Then, working solution of Streptavidin-HRP with Reagent Diluent was prepared by diluting 1:40 and added into each well. After 20 minutes at room temperature incubation, microplates were washed and applied with 100 μl of Substrate Solution for 20 minutes followed by Stop Solution after washing. Finally, signals were measured at 450 nm absorbance by PHomo Microplate Reader (Autobio, China) The amount of pro-collagen 1 was quantified by extrapolating the signal into a linear range of a pro-collagen 1 standard curve. Screening compounds were typically tested at concentration of 150 and 250 μg/mL. The dose response data for each compound and the different cell lines were obtained by nonlinear regression analysis using Prism 9 software (GraphPad, La Jolla, USA).

[2] = tested on: human lung fibroblast MRCVI; experiment: ELISA of secreted pro-collagen I alpha 1, human lung fibroblast MRCVI; assay type: cell-based; conditions: 48 h, 250 μg
Experimental: as §1, §2
As cell line MRCV1 was used, which is an immortalized cell line originated from human lung fibroblast, bought in 2001.
as §3, with “cell line was” for “cells lines were”, “and” for “and were”
as §4
The medium containing the secretion of the human lung fibroblast MRCVI was collected after 48 h and 72 h treatment. Secretion of pro-collagen 1 was assessed with human pro-collagen I alpha 1 DuoSet ELISA (R&D systems, USA) To prepare the Elisa plate, Human pro-Collagen I α capture antibody was diluted in ELISA plate-coating buffer at 4 μg/mL working concentration. 100 μl of diluted Capture antibody was added to 96-well microplates and incubated over night at room temperature. After three times washing with Wash Buffer, microplates were blocked by adding 300 μl of Reagent Diluent for 1 hour at room temperature. To proceed the ELISA Human pro-collagen I α1 Standards were diluted in Reagent Diluent (range between […]) and 100 μl of standards or conditioned mediums were added to designated wells. Microplates were incubated at room temperature for 2 hours. Human Pro-collagen I α1 Detection Antibody was prepared in Reagent Diluent at […] working concentration and 100 μl of diluted Detection Antibody was applied for 2 hours at room temperature after extensive washing. Then, working solution of Streptavidin-HRP with Reagent Diluent was prepared by diluting 1:40 and added into each well. After 20 minutes at room temperature incubation, microplates were washed and applied with 100 μl of Substrate Solution for 20 minutes followed by Stop Solution after washing. Finally, signals were measured at 450 nm absorbance by PHomo Microplate Reader (Autobio, China) The amount of pro-collagen 1 was quantified by extrapolating the signal into a linear range of a pro-collagen 1 standard curve. Screening compounds were typically tested at concentration of 150 and 250 μg/mL. The dose response data for each compound and the different cell lines were obtained by nonlinear regression analysis using Prism 9 software (GraphPad, La Jolla, USA).

SMILES	collagen reduction percentage in comparison to the standard (100%) [1] [%]	collagen reduction percentage in comparison to the standard (100%) [2] [%]
c1ccc2c(c1)cnn1nnnc21 [Compound 1, Tetrazolo[5,1-a]phthalazine]	57	78
COc1nn2c(C)nnc2c2ccccc12 [Compound 3, 6-Methoxy-3-methyl-1,2,4-triazolo[3,4-a]phthalazine]	82	11
[2H]C([2H])([2H])c1nnc2c3ccccc3cnn12 [Compound 7, 3-D3-Methyl-1,2,4-triazolo[3,4-a]phthalazine]	43	9
c1ccc2c(c1)cnn1cnnc21 [Compound 10, 1,2,4-Triazolo[3,4-a]phthalazine]		52
Cc1nnc2c3cscc3cnn12 [Compound 16, 3-Methylthieno[3,4-d][1,2,4]triazolo[4,3-b]pyridazine]	79	43
c1nn2nnnc2c2cscc12 [Compound 17, Tetrazolo[1,5-b]thieno[3,4-d]pyridazine]	34	16
Cc1nnc2c3ccc(C(F)(F)F)cc3cnn12 [Compound 36, 3-Methyl-8-(trifluoromethyl)-[1,2,4]triazolo[3,4-a]phthalazine]		68
CC(C)Oc1nn2nnnc2c2c(Cl)cccc12 [Compound 44, 10-chloro-6-isopropoxytetrazolo[5,1-a]phthalazine]	72	
